Assay results published in EP0364819A2, “LHRH analogs” (The Administrators of The Tulane Educational Fund, priority 1988, dated 1990).

Tests used:
[1] = tested on: membrane receptors of Dunning tumor; assay: Receptor binding to Dunning tumor membranes with 125I-labeled [D-Trp6]LHRH; details: first receptor class (high affinity binding sites); rat Dunning tumor
Protocol: (§1) This is determined by using labelled LHRH and [D-Trp⁶]LHRH. The assay is carried out similarly to that described by T. Kadar et al., Proc. Natl. Acad. Sci. USA, 85, 890-894 (1988).

[2] = tested on: membrane receptors of human prostate cancer; assay: Receptor binding to human prostate cancer membranes with 125I-labeled [D-Trp6]LHRH; details: first receptor class (high affinity binding sites)
Protocol: (§2) (c)Affinity for peptides to human prostate and breast cancer cell membranes.
as §1

[3] = target: T1, membrane receptors of rat pituitary (Rattus norvegicus, UniProt P30969); assay: Receptor binding to rat pituitary membranes with 125I-labeled [D-Trp6]LHRH; details: Table 2, antagonistic analogues; high affinity binding sites; pituitary of male rats; ¹²⁵l-labeled [D-Trp⁶]LHRH
T1 construct: membrane receptors of rat pituitary; from tissue; host or cells: rat pituitary membranes
T1 sequence (P30969 1-327): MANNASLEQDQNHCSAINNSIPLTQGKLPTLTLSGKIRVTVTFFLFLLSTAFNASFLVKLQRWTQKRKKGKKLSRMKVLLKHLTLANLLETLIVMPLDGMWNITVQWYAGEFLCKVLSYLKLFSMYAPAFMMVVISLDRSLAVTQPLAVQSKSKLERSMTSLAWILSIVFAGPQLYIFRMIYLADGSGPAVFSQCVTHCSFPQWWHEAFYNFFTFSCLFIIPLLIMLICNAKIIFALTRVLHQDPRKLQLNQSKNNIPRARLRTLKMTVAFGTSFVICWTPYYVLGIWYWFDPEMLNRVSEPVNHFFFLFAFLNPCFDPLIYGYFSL
Protocol: as §1
(§3) Table 2 presents the antiovulatory activity of the claimed compounds having LHRH-inhibiting properties. The inhibitory action was determined in vivo, in 4-day cycling rats as described [A. Corbin and C. W. Beattie, Endocr. Res. Commun., 2, 1-23 (1975)]. Affinities of the claimed compounds to membrane receptors of rat pituitary and human breast cancer cells are also given in Tables 1 and 2 as determined by using [[…],D-Trp⁶]LHRH.

[4] = target: T2, membrane receptors of human breast cancer cells (Homo sapiens, UniProt P30968); assay: Receptor binding to human breast cancer cell membranes with 125I-labeled [D-Trp6]LHRH; details: Table 2, antagonistic analogues, high affinity binding sites, ¹²⁵l-labeled [D-Trp⁶]LHRH
T2 construct: human prostate and breast cancer cell membranes; endogenous in cells
T2 sequence (P30968 1-328): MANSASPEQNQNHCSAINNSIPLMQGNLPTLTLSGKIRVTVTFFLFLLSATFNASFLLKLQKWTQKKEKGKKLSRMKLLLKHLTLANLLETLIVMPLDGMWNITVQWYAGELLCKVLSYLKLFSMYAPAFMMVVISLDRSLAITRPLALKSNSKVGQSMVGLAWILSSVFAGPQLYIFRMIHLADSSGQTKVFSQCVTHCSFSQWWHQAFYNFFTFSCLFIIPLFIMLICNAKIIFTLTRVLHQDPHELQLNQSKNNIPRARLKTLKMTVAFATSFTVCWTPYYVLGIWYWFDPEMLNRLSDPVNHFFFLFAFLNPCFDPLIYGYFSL
Protocol: as §2, §1, §3

4-day cycling rats = assay: In vivo antiovulatory activity in 4-day cycling rats; details: 4-day cyclic rats
Protocol: This activity of the peptides is determined in 4-day-cycling rats as described [A. Corbin and C. W.Beattie, Endocr. Res. Commun. 2, 1-23(1975)].
as §3

[5] = prior art analogues with Chlorambucil as cytotoxic moiety; cited from earlier work

| Compound | Dunning tumor* Ka1 [1] | Human prostate cancer* Ka1 [2] | Binding affinity, Ka1, for membrane receptors of pituitary [3] | Binding affinity, Ka1, for membrane receptors of cancer cells [4] | Hormonal activity* %Blockade of ovulation (4-day cycling rats; Dose 3 µg/rat) | Hormonal activity* %Blockade of ovulation (4-day cycling rats; Dose 10 µg/rat) | activities (LHRH agonist or antagonist) [5] |
| --- | --- | --- | --- | --- | --- | --- | --- |
| CC(C)C[C@H](NC(=O)[C@@H](Cc1c[nH]c2ccccc12)NC(=O)[C@H](Cc1ccc(O)cc1)NC(=O)[C@H](CO)NC(=O)[C@H](Cc1c[nH]c2ccccc12)NC(=O)[C@H](Cc1c[nH]cn1)NC(=O)[C@@H]1CCC(=O)N1)C(=O)N[C@@H](CCCNC(=N)N)C(=O)N1CCC[C@H]1C(=O)NCC(N)=O [[D-Trp⁶]-LHRH, reference compound] | 1.87 nM⁻¹ | 0.04 nM⁻¹ |  |  |  |  |  |
| Ac-D-Nal(2)-D-Phe(4Cl)-D-Pal(3)-Ser-Arg-D-Lys[(Cu⁺⁺)(POL)₂(DL-A₂pr)]-Leu-Arg-Pro-D-Ala-NH₂ [XXIV] |  |  | 5.483 nM-¹ | 2.628 nM-¹ | 50% |  |  |
| Ac-D-Nal(2)-D-Phe(4Cl)-D-Pal(3)-Ser-Arg-D-Lys[(Cu⁺⁺)(POLP)₂(DL-A₂pr)]-Leu-Arg-Pro-D-Ala-NH₂ [Example XX] |  |  | 5.250 nM-¹ | 2.436 nM-¹ | 80% |  |  |
| Ac-D-Nal(2)-D-Phe(4Cl)-D-Pal(3)-Ser-Arg-D-Mel-Leu-Arg-Pro-D-Ala-NH₂ [Example II] | 1.68 nM⁻¹ | 0.7 nM⁻¹ | 7.190 nM-¹ | 3.967 nM-¹ |  |  |  |
| Ac-D-Nal(2)-D-Phe(4Cl)-D-Trp-Ser-Arg-D-Lys[(Cu⁺⁺) (POL)₂(DL-A₂pr)]-Leu-Arg-Pro-D-Ala-NH₂ [Example XXIII] |  |  | 7.622 nM-¹ | 3.408 nM-¹ |  | 40% |  |
| Ac-D-Nal(2)-D-Phe(4Cl)-D-Trp-Ser-Arg-D-Lys[(Cu⁺⁺)(POLP)₂(DL-A₂pr)]-Leu-Arg-Pro-D-Ala-NH₂ [Example XXII] |  |  | 2.901 nM-¹ | 1.337 nM-¹ |  | 60% |  |
| Ac-D-Nal(2)-D-Phe(4Cl)-D-Trp-Ser-Arg-D-Lys[(Cu⁺⁺)(SAL)₂(DL-A₂pr)]-Leu-Arg-Pro-D-Ala-NH₂ [XII] |  |  | 9.183 nM-¹ | 4.951 nM-¹ | 20% |  |  |
| Ac-D-Nal(2)-D-Phe(4Cl)-D-Trp-Ser-Arg-D-Lys[(Ni⁺⁺)(SAL)₂(DL-A₂pr)]-Leu-Arg-Pro-D-Ala-NH₂ [Example XV] |  |  | 8.676 nM-¹ | 4.418 nM-¹ | 20% |  |  |
| [Chlorambucil-D-Leu²,D-Leu³,D-Ala⁶]LHRH (2-10) |  |  |  |  |  |  | moderate activities |
| [Chlorambucil-D-Phe¹,D-Phe²,D-Trp³ʼ⁶]LHRH |  |  |  |  |  |  | practically inactive |
| [D-Lys(Chlorambucil)⁶] LHRH |  |  |  |  |  |  | moderate activities |
